# Numbered stars: 1 amine (or outer) side, 2 acyl side, 3 side chain; on linkers, the order of the positions; unused ones are H or OH. Square brackets hold non-standard residues; d marks the D form. Peptide text beside a SMILES is read from it. * marks the point of attachment. ξ: configuration not given here. Quinaldoyl = O=C(c1ccc2ccccc2n1)*; X1 = O=C(Cc1ccc(N[*:1])cc1)[*:2]; NH(2-Me-phenyl) = Cc1ccccc1N*; ξTic = O=C(O)C1Cc2ccccc2CN1; PhAc = O=C(Cc1ccccc1)*; Boc = CC(C)(C)OC(=O)*; CO = O=C([*:1])[*:2]; NHPh = c1ccc(N*)cc1; Ahx = NCCCCCC(=O)O; X3 = Cc1cccc(N*)n1
# Molecular target: T1, VLA4 (Homo sapiens, UniProt P05556+P13612)
# T1 construct: endogenous in cells; host or cells: Ramos cells
# Assay: Inhibition of VLA4-dependent adhesion to BSA-CS1
# Type: cell-based
# Conditions: not given
# T1 sequence (P13612 34-1032): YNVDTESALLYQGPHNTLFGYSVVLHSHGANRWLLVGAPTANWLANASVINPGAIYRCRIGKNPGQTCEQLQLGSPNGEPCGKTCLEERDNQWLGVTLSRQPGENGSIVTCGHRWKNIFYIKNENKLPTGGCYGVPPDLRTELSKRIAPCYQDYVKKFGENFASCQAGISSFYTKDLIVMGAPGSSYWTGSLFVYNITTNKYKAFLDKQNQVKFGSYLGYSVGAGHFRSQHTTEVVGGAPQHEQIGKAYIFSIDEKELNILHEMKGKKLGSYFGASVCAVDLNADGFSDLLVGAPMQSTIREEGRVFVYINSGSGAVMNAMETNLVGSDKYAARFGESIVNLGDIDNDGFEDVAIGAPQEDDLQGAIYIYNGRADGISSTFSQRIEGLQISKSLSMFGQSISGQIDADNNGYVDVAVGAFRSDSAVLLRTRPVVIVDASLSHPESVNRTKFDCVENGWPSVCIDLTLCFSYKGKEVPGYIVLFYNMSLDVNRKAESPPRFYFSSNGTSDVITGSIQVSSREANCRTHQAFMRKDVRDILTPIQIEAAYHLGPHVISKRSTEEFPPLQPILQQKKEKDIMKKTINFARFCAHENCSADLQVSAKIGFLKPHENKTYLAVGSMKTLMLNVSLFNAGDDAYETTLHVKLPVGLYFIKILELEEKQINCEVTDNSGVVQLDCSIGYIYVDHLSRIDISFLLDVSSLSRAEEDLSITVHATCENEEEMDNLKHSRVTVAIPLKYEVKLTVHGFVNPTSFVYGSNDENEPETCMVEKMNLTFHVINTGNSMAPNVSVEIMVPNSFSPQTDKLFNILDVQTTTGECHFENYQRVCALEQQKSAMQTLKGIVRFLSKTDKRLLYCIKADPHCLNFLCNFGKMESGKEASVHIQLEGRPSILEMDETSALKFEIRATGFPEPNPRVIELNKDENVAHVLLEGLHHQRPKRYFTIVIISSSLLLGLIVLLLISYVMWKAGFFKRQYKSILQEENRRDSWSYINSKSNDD
# T1 sequence (P05556 21-798): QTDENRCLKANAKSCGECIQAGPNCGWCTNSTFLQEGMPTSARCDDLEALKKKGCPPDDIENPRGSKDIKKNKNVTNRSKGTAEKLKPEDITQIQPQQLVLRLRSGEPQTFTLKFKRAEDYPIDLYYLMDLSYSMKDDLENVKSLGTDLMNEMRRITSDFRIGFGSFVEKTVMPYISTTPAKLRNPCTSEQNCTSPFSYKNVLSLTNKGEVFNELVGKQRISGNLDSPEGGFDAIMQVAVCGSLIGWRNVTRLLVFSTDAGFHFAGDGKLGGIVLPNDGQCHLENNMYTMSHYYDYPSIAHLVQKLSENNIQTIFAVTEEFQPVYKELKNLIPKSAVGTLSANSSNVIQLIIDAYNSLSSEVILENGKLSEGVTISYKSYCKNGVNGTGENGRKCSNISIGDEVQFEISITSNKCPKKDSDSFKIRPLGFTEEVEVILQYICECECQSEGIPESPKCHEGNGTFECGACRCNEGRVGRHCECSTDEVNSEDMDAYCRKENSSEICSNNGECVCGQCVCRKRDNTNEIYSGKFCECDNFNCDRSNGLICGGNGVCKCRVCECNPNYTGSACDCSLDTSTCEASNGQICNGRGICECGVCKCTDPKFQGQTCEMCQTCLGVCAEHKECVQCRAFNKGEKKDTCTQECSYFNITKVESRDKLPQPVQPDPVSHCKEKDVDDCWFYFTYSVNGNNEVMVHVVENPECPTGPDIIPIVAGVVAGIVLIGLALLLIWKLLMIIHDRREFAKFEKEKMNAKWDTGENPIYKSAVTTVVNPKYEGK
row,Compound,IC50 [nM]
1,Cc1ccccc1NC(=O)Nc1ccc(CC(=O)N[C@@H](CC(C)C)C(=O)N[C@@H](CC(=O)O)C(=O)N[C@H](C(=O)N2CCC[C@H]2C(=O)N[C@@H](CO)C(=O)N[C@H](C(=O)O)[C@@H](C)O)C(C)C)cc1 [Compound 338] ({NH(2-Me-phenyl)-CO}-[X1]LDVPST-OH),< 50

# Same assay, conditions: binding of BCECF-labelled Ramos cells to BSA-CS1 coated wells, 2 mM MnCl2; read-out: IC50
row,IC50 [nM],Compound
1,< 50,CSCC[C@H](NC(=O)Cc1ccc(NC(=O)Nc2ccccc2C)cc1)C(=O)N[C@@H](CC(=O)O)C(=O)N[C@@H](CCC(=O)O)C(N)=O [Compound 223]
2,50 to 10000,CC(C)C[C@H](NC(=O)c1csc(-c2cccnc2)n1)C(=O)N[C@@H](CC(=O)O)C(=O)N[C@H](C(=O)O)C(C)C [Compound 375]
3,> 10000,CNC(=O)C(C)(C)NC(=O)[C@H](CC(=O)O)NC(=O)[C@H](CC(C)C)NC(=O)c1ccc2ccccc2n1 [Compound 185]
4,< 50,Cc1ccccc1NC(=O)Nc1ccc(CC(=O)N[C@@H](CO)C(=O)N[C@@H](CC(=O)O)C(=O)N[C@@H](Cc2c[nH]c3ccccc23)C(N)=O)cc1 [Compound 284]
5,< 50,Cc1ccccc1NC(=O)Nc1ccc(CC(=O)N[C@H](C(=O)N[C@@H](CC(=O)O)C(=O)N[C@H](C(N)=O)C(C)C)[C@@H](C)O)cc1 [Compound 254]
6,< 50,Cc1ccccc1NC(=O)Nc1ccc(CC(=O)N[C@@H](CC(C)C)C(=O)N[C@@H](CC(=O)O)C(=O)N[C@H](C(N)=O)[C@@H](C)O)cc1 [Compound 235]
7,< 50,Cc1ccccc1NC(=O)Nc1ccc(CC(=O)N[C@@H](CCC(N)=O)C(=O)N[C@@H](CC(=O)O)C(=O)N[C@H](C(N)=O)[C@@H](C)O)cc1 [Compound 302]
8,< 50,Cc1ccccc1NC(=O)Nc1ccc(CC(=O)N[C@@H](CCC(N)=O)C(=O)N[C@@H](CC(=O)O)C(=O)N[C@@H](CCC(=O)O)C(N)=O)cc1 [Compound 301]
9,< 50,Cc1ccccc1NC(=O)Nc1ccc(CC(=O)N[C@H](CC(C)C)C(=O)N[C@@H](CC(=O)O)C(=O)N[C@@H](CCC(=O)O)C(N)=O)cc1 [Compound 290]
10,> 10000,CCCC(NC(=O)C(CC(=O)O)NC(=O)C(CC(C)C)NC(=O)c1ccc2ccccc2n1)C(=O)NC (stereo not shown) [Compound 52]
11,> 10000,CC(=O)N[C@@H](Cc1ccccc1)C(=O)N[C@@H](CC(C)C)C(=O)N[C@@H](CC(=O)O)C(=O)N[C@H](C(=O)O)C(C)C [Compound 152] (Ac-FLDV-OH)
12,> 10000,CC(C)CC(NC(=O)C(Cc1ccc(O)cc1)NC(=O)OC(C)(C)C)C(=O)NC(CC(=O)O)C(=O)NC(C(=O)O)C(C)C (stereo not shown) [Compound 66] (Boc-YLDV-OH; configuration not given here)
13,> 10000,CCC(C)C(NC(=O)C(CC(=O)O)NC(=O)C(CC(C)C)NC(=O)Cc1ccccc1)C(N)=O (stereo not drawn) [Compound 53] (PhAc-Leu-Asp-Ile-NH2; configuration not given here)
14,50 to 10000,CNC(=O)[C@@H](CC(C)C)NC(=O)[C@H](CC(=O)O)NC(=O)[C@@H]1CCCN1C(=O)Cc1ccc(NC(=O)Nc2ccccc2C)cc1 [Compound 409]
15,> 10000,CC(C)C[C@H](NC(=O)CCCCc1ccccc1)C(=O)N[C@@H](CC(=O)O)C(=O)N[C@H](C(=O)O)C(C)C [Compound 98]
16,> 10000,Cc1ccc2nc(C(=O)N[C@@H](CC(C)C)C(=O)N[C@@H](CC(=O)O)C(=O)N[C@H](C(=O)O)C(C)C)[nH]c(=O)c2c1 [Compound 370]
17,50 to 10000,CC(C)C[C@@H](NC(=O)Cc1ccc(NC(=O)Nc2ccccc2)cc1)C(=O)N[C@@H](CC(=O)O)C(=O)N[C@H](C(=O)N1CCC[C@H]1C(N)=O)C(C)C [Compound 209] ({NHPh-CO}-[X1][dL]DVP-NH2)
18,< 50,Cc1ccccc1NC(=O)Nc1ccc(CC(=O)N[C@@H](CC(C)C)C(=O)N[C@@H](CC(=O)O)C(=O)N[C@H](CC(N)=O)C(N)=O)cc1 [Compound 237]
19,50 to 10000,CC(C)CNC(=O)[C@@H](NC(=O)[C@H](CC(=O)O)NC(=O)[C@H](CC(C)C)NC(=O)Cc1ccc(NC(=O)Nc2ccccc2)cc1)C(C)C [Compound 205]
20,< 50,CSCC[C@H](NC(=O)[C@H](CC(=O)O)NC(=O)[C@H](CCC(N)=O)NC(=O)Cc1ccc(NC(=O)Nc2ccccc2C)cc1)C(N)=O [Compound 303]
21,< 50,Cc1ccccc1NC(=O)Nc1ccc(CC(=O)N[C@H](C(=O)N[C@@H](CC(=O)O)C(=O)N[C@@H](CC(C)C)C(N)=O)[C@@H](C)O)cc1 [Compound 253]
22,< 50,CSCC[C@H](NC(=O)Cc1ccc(NC(=O)Nc2ccccc2C)cc1)C(=O)N[C@@H](CCC(=O)O)C(=O)N[C@H](C(N)=O)C(C)C [Compound 309]
23,> 10000,CC(C)[C@H](NC(=O)[C@H](CC(=O)O)NC(=O)C(C)(C)NC(=O)c1cc2ccccc2cn1)C(=O)O [Compound 82]
24,< 50,Cc1ccccc1NC(=O)Nc1ccc(CC(=O)N[C@@H](CCC(=O)O)C(=O)N[C@@H](CC(=O)O)C(=O)N[C@@H](CCC(=O)O)C(N)=O)cc1 [Compound 267]
25,< 50,Cc1ccccc1NC(=O)Nc1ccc(CC(=O)N[C@@H](CC(C)C)C(=O)N[C@@H](CCC(=O)O)C(=O)N[C@@H](CC(=O)O)C(N)=O)cc1 [Compound 310]
26,50 to 10000,Cc1ccccc1NC(=O)Nc1ccc(CC(=O)N[C@@H](CCCCNC(=O)CCCCCN)C(=O)N[C@@H](CC(=O)O)C(=O)N[C@H](C(=O)N2CCC[C@H]2C(=O)O)C(C)C)cc1 [Compound 202] ({NH(2-Me-phenyl)-CO}-[X1]K(Ahx)DVP-OH)

row,IC50 [nM],Compound
1,50 to 10000,Cc1ccccc1NC(=O)Nc1ccc(CC(=O)NC(CC(C)C)C(=O)NC(CC(=O)O)C(=O)NC(C(=O)O)c2ccccc2)cc1 (stereo not shown) [Compound 207]
2,< 50,Cc1ccccc1NC(=O)Nc1ccc(CC(=O)N[C@@H](CCC(=O)O)C(=O)N[C@@H](CC(=O)O)C(=O)N[C@H](CC(C)C)C(N)=O)cc1 [Compound 266]
3,> 10000,CC(C)CC(NC(=O)CCc1ccccc1)C(=O)NC(CC(=O)O)C(=O)NCC1CCCCC1 (stereo not shown) [Compound 24]
4,> 10000,CC(C)C[C@H](NC(=O)c1cncc(C#Cc2ccccc2)c1)C(=O)N[C@@H](CC(=O)O)C(=O)N[C@H](C(=O)O)C(C)C [Compound 372]
5,< 50,CSCC[C@H](NC(=O)Cc1ccc(NC(=O)Nc2ccccc2C)cc1)C(=O)N[C@@H](CC(=O)O)C(=O)N[C@@H](CC(C)C)C(N)=O [Compound 220]
6,> 10000,CC(C)C[C@H](NC(=O)c1cc2ccccc2cn1)C(=O)NC(CC(=O)NO)C(=O)N[C@H](C(=O)O)C(C)C (stereo partly shown) [Compound 6]
7,> 10000,CC(C)C[C@H](NC(=O)CC1CC2CCC1C2)C(=O)N[C@@H](CC(=O)O)C(=O)N[C@H](C(=O)O)C(C)C (stereo partly shown) [Compound 390]
8,> 10000,CC(C)C(NC(=O)C(CC(=O)O)NC(=O)C(CC1CCCCC1)NC(=O)c1cc2ccccc2cn1)C(=O)O (stereo not shown) [Compound 85]
9,< 50,Cc1ccccc1NC(=O)Nc1ccc(CC(=O)N2CCC[C@H]2C(=O)N[C@@H](CC(=O)O)C(=O)N[C@@H](CC(C)C)C(N)=O)cc1 [Compound 242]
10,> 10000,COC(=O)[C@@H](NC(=O)[C@H](CC(=O)O)N1CCC(NC(=O)OCc2ccccc2)C1=O)C(C)C (stereo partly shown) [Compound 334]
11,< 50,Cc1cccc(NC(=O)Nc2ccc(CC(=O)N[C@@H](CC(C)C)C(=O)N[C@@H](CC(=O)O)C(=O)N[C@H](C(=O)N3CCC[C@H]3C(=O)O)C(C)C)cc2)n1 [Compound 346] ({X3-CO}-[X1]LDVP-OH)
12,< 50,Cc1ccccc1NC(=O)Nc1ccc(CC(=O)N[C@@H](CC(C)C)C(=O)N[C@@H](CC(=O)O)C(=O)N[C@H](C(=O)N2CCC[C@H]2C(=O)N[C@@H](CO)C(=O)O)C(C)C)cc1 [Compound 337] ({NH(2-Me-phenyl)-CO}-[X1]LDVPS-OH)
13,< 50,Cc1ccccc1NC(=O)Nc1ccc(CC(=O)N2CCCC2C(=O)NC(CC(=O)O)C(=O)NC(CO)C(N)=O)cc1 (stereo not shown) [Compound 251]
14,< 50,Cc1ccccc1NC(=O)Nc1ccc(CC(=O)N[C@@H](CCC(N)=O)C(=O)N[C@@H](CC(=O)O)C(=O)N[C@H](CC(C)C)C(N)=O)cc1 [Compound 300]
15,> 10000,Cc1ccccc1NC(=O)Nc1ccc(CC(=O)N[C@@H](CC(C)C)C(=O)N2CCC[C@H]2C(=O)N[C@H](C(=O)N[C@@H](CC(=O)O)C(=O)O)C(C)C)cc1 [Compound 341] ({NH(2-Me-phenyl)-CO}-[X1]LPVD-OH)
16,< 50,Cc1ccccc1NC(=O)Nc1ccc(CC(=O)N[C@@H](CCC(N)=O)C(=O)N[C@@H](CC(=O)O)C(=O)N[C@H](C(N)=O)C(C)C)cc1 [Compound 299]
17,> 10000,CC(C)C[C@H](NC(=O)[C@H](CC(=O)O)NC(=O)[C@H](CC(C)C)NC(=O)C1Cc2ccccc2CN1)C(=O)O (stereo partly shown) [Compound 90] (H-[ξTic]LDL-OH)
18,< 50,CC(C)C[C@H](NC(=O)Cc1ccc(NC(=O)Nc2ccccc2)cc1)C(=O)N[C@@H](CC(=O)O)C(=O)N[C@H](C(=O)N1CCC[C@H]1C(N)=O)C(C)C [Compound 208] ({NHPh-CO}-[X1]LDVP-NH2)
19,< 50,Cc1ccccc1NC(=O)Nc1ccc(CC(=O)N[C@@H](CCC(=O)O)C(=O)N[C@@H](CC(=O)O)C(=O)N[C@H](C(N)=O)[C@@H](C)O)cc1 [Compound 268]
20,< 50,Cc1ccccc1NC(=O)Nc1ccc(CC(=O)N[C@@H](CO)C(=O)N[C@@H](CC(=O)O)C(=O)N[C@H](CC(N)=O)C(N)=O)cc1 [Compound 282]
21,< 50,Cc1ccccc1NC(=O)Nc1ccc(CC(=O)N[C@@H](CCC(=O)O)C(=O)N[C@@H](CC(=O)O)C(=O)N[C@H](C(N)=O)C(C)C)cc1 [Compound 265]
22,< 50,Cc1ccccc1NC(=O)Nc1ccc(CC(=O)N[C@H](CC(C)C)C(=O)N[C@@H](CC(=O)O)C(=O)N[C@@H](CC(=O)O)C(N)=O)cc1 [Compound 286]
23,> 10000,CSCC[C@H](NC(=O)[C@@H](NC(=O)[C@H](CC(=O)O)NC(=O)[C@H](CC(C)C)NC(=O)c1ccc2ccccc2n1)C(C)C)C(=O)O [Compound 186] (Quinaldoyl-LDVM-OH)
24,< 50,Cc1ccccc1NC(=O)Nc1ccc(CC(=O)N[C@H](CC(C)C)C(=O)N[C@@H](CC(=O)O)C(=O)N[C@H](C(N)=O)[C@@H](C)O)cc1 [Compound 291]
25,> 10000,COC(=O)C(CCSC)NC(=O)C(NC(=O)C(CC(=O)O)NC(=O)C(CC(C)C)NC(=O)OC(C)(C)C)C(C)C (stereo not shown) [Compound 167] (Boc-LDVM-OMe; configuration not given here)
